From ChEMBL document CHEMBL3352659, “Indolinone-based acetylcholinesterase inhibitors: synthesis, biological activity and molecular modeling” (Eur J Med Chem, 2014)
pIC50, pKi: −log10 of the molar value.

Experiments:
[1] = Selectivity index, ratio of IC50 for equine serum BuChE to IC50 for electric eel AChE
[2] = molecular target: T1, Acetylcholinesterase (Electrophorus electricus, UniProt O42275); test: Inhibition of electric eel AChE using acetylthiocholine iodide substrate by Ellman method based spectrophotometry
[3] = molecular target: Cholinesterase (Equus caballus, UniProt P81908); test: Inhibition of equine serum BuChE using butyrylthiocholine iodide substrate by Ellman method based spectrophotometry
[4] = molecular target: T1, Acetylcholinesterase; test: Mixed type inhibition of electric eel AChE using acetylthiocholine iodide substrate by Lineweaver-Burk plot analysis

Chain of Cholinesterase (P81908 whole entry): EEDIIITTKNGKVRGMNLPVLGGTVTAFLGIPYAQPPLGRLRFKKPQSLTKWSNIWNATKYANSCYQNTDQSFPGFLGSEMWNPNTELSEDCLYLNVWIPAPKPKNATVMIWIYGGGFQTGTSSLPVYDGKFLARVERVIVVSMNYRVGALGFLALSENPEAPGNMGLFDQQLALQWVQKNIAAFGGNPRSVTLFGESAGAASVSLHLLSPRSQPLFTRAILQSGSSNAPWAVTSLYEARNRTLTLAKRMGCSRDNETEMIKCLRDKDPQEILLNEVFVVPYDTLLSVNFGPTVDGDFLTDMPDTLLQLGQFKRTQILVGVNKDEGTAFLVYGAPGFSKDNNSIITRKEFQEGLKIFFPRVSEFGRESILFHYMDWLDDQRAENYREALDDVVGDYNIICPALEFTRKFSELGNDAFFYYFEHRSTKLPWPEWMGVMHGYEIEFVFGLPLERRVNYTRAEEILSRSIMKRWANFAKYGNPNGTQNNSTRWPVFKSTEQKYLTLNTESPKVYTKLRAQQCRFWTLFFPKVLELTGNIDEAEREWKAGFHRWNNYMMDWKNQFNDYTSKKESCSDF
T1 sequence (O42275 whole entry): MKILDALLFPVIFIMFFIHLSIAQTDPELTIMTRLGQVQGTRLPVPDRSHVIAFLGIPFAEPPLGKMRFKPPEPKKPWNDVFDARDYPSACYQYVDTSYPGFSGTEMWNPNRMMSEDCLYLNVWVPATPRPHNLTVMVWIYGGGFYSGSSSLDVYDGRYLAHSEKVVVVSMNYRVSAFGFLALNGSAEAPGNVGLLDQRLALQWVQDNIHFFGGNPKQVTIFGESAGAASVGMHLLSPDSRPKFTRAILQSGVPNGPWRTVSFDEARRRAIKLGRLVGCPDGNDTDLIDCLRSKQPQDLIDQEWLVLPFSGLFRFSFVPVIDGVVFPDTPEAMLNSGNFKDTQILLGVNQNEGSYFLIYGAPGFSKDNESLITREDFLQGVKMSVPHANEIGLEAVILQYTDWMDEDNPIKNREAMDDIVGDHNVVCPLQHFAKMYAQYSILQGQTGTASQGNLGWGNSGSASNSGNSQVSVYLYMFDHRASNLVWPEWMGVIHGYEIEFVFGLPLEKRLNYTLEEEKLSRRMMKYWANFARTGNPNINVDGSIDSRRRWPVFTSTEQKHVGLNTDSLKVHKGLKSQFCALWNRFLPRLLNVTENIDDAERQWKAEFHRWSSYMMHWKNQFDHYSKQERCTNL

SMILES | Ratio IC50 [1] | pIC50 [2] | pIC50 [3] | pKi [4]
COc1ccc(C[n+]2ccc(/C=C3/C(=O)Nc4ccccc43)cc2)cc1 | 11.7 | 6.17 | 5.10 | –
O=C1Nc2ccccc2/C1=C\c1cc[n+](Cc2ccc(Br)cc2)cc1 | 2.9 | 6.18 | 5.72 | –
O=C1Nc2ccccc2/C1=C\c1cc[n+](Cc2ccccc2Cl)cc1 | 3110 | 9.36 | 5.86 | 8.94
O=C1Nc2ccccc2/C1=C\c1cc[n+](Cc2ccccc2[N+](=O)[O-])cc1 | 7.5 | 6.67 | 5.80 | –
O=C1Nc2ccccc2/C1=C\c1cc[n+](Cc2ccccc2)cc1 | 91.3 | 7.33 | 5.37 | –
COc1cccc(C[n+]2ccc(/C=C3/C(=O)Nc4ccccc43)cc2)c1 | 424 | 8.18 | 5.55 | –
O=C1Nc2ccccc2/C1=C\c1cc[n+](Cc2cccc(F)c2)cc1 | 352 | 7.89 | 5.35 | –
O=C1Nc2ccccc2/C1=C\c1cc[n+](Cc2ccc(Cl)cc2Cl)cc1 | 9.7 | 6.59 | 5.60 | –
O=C1Nc2ccccc2/C1=C\c1cc[n+](Cc2ccc(Cl)cc2)cc1 | 3.73 | 6.23 | 5.66 | –
O=C1Nc2ccccc2/C1=C\c1cc[n+](Cc2ccc(CCl)cc2)cc1 | 9.67 | 6.99 | 6.00 | –
O=C1Nc2ccccc2/C1=C\c1cc[n+](Cc2c(F)cccc2Cl)cc1 | 488 | 8.39 | 5.70 | –
Cc1cccc(C[n+]2ccc(/C=C3/C(=O)Nc4ccccc43)cc2)c1 | 327 | 8.28 | 5.77 | –
O=C1Nc2ccccc2/C1=C\c1cc[n+](Cc2ccccc2F)cc1 | 3420 | 8.90 | 5.37 | –
Cc1ccccc1C[n+]1ccc(/C=C2/C(=O)Nc3ccccc32)cc1 | 57.9 | 7.82 | 6.05 | –
O=C1Nc2ccccc2/C1=C\c1cc[n+](Cc2ccccc2Br)cc1 | 842 | 8.84 | 5.91 | –
O=C1Nc2ccccc2/C1=C\c1cc[n+](Cc2ccc(Cl)c(Cl)c2)cc1 | 112 | 7.53 | 5.48 | –
O=C1Nc2ccccc2/C1=C\c1cc[n+](Cc2cccc(Br)c2)cc1 | 169 | 7.99 | 5.76 | –
O=C1Nc2ccccc2/C1=C\c1cc[n+](Cc2ccc([N+](=O)[O-])cc2)cc1 | 10 | 6.13 | 5.12 | –
O=C1Nc2ccccc2/C1=C\c1cc[n+](Cc2ccc(F)cc2)cc1 | 4.58 | 6.17 | 5.51 | –
O=C1Nc2ccccc2/C1=C\c1cc[n+](Cc2cccc(Cl)c2)cc1 | 276 | 8.31 | 5.87 | –
O=C1Nc2ccccc2/C1=C\c1cc[n+](Cc2c(Cl)cccc2Cl)cc1 | 88.2 | 7.77 | 5.82 | –
